Experimental data reported in publication PMC6109063 (Nature Communications, 2018).

Molecular target: T1, FgGcn5 (Fusarium graminearum, UniProt I1R9W6)
T1 construct: gene FGRAMPH1_01T00753
Details: inhibitor; 30 ug/ml PCN; recombinant GST-H3 substrate, 5 mM acetyl-CoA, Tris-HCl pH 8.0, 37 C, 45 min

T1 sequence (I1R9W6 1-396): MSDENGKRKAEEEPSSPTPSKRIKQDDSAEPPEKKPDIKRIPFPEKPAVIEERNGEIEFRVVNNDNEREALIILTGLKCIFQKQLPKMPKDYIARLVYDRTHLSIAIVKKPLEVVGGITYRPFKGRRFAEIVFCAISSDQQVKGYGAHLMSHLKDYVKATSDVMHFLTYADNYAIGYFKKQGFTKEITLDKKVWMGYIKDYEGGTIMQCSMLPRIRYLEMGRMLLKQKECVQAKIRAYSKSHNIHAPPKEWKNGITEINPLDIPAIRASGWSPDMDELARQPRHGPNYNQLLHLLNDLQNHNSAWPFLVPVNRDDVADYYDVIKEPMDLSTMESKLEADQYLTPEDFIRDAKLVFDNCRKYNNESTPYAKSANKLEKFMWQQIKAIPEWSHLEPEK

NC(=O)c1cccc2nc3ccccc3nc12 [PCN, phenazine-1-carboxamide]
in vitro histone H3 acetylation assay, immunoblot (H3 pan-acetyl and H3K18ac): demonstrating that PCN was able to inhibit the HAT activity of FgGcn5 in vitro
